This test relates to IL-1β production in PMA-differentiated THP-1 cells. Briefly: IL-1β production in PMA-differentiated THP-1 cells stimulated with gramicidin (hTHP-1 assay, 2% fetal bovine serum; Procedures 1-3). The note with it: Table B2, class symbols, read-out: IC50. The test is classed as cell-based, human. Put shortly:
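PMA-primed THP-1 cells (20 ng/ml PMA, 16-18 h) in RPMI with 2% FBS were pre-incubated with compounds for 1 h, from 100 μM downward in 3-fold steps (0.37% DMSO final), then stimulated with 5 μM gramicidin for 2 h. IL-1β in the supernatant was quantified by HTRF.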

Setting [1] is: Homo sapiens, THP-1, hTHP-1 assay containing 2% fetal bovine serum.

Where two headings read alike, the source gives them in different places.

Consider `CC(C)(C)OC(=O)NC[C@@](C)(O)c1ncc(S(N)(=O)=NC(=O)Nc2c3c(cc4c2CCC4)CCC3)s1` (stereo partly drawn) [Example 676, Tert-butyl ((2R)-2-(5-(N′-((1,2,3,5,6,7-hexahydro-s-indacen-4-yl)carbamoyl)sulfamidimidoyl)thiazol-2-yl)-2-hydroxypropyl)carbamate], for which the IC50 under setting [1] was 40 to 200 nM.
Still for that read-out and setting: to `C[C@@](O)(COCCO)c1ncc(S(N)(=O)=NC(=O)Nc2c3c(cc4c2CCC4)CCC3)s1` (stereo partly drawn) [Example 677, N′-((1,2,3,5,6,7-hexahydro-s-indacen-4-yl)carbamoyl)-2-((R)-2-hydroxy-1-(2-hydroxyethoxy)propan-2-yl)thiazole-5-sulfonimidamide] belongs 40 to 200 nM; to `N#Cc1c2c(c(NC(=O)N=S(N)(=O)c3cnc(C(O)(CO)CO)s3)c3c1CCC3)CCC2` (stereo not shown) [Example 678, N′-((8-cyano-1,2,3,5,6,7-hexahydro-s-indacen-4-yl)carbamoyl)-2-(1,2,3-trihydroxypropan-2-yl)thiazole-5-sulfonimidamide], 5000 to 30000 nM.
Still for that read-out and setting: in the case of `COCc1nc(C(C)(C)O)sc1S(N)(=O)=NC(=O)Nc1c2c(c(C#N)c3c1CCC3)CCC2` (stereo not shown) [Example 679, N′-((8-cyano-1,2,3,5,6,7-hexahydro-s-indacen-4-yl)carbamoyl)-2-(2-hydroxypropan-2-yl)-4-(methoxymethyl)thiazole-5-sulfonimidamide] it was 200 to 1000 nM.
Regarding `CC(C)(O)c1cnc(S(N)(=O)=NC(=O)Nc2c3c(cc4c2CCC4=O)CCC3)s1` (stereo not shown) [Example 680, 5-(2-Hydroxypropan-2-yl)-N′-((1-oxo-1,2,3,5,6,7-hexahydro-s-indacen-4-yl)carbamoyl)thiazole-2-sulfonimidamide], the IC50 (hTHP-1 assay containing 2% fetal bovine serum) fell in the range of 8 to 40 nM.
In the case of `CC(C)(O)c1ccnc(S(N)(=O)=NC(=O)Nc2c3c(c(C#N)c4c2CCC4)CCC3)c1` (stereo not shown) [Example 681, N′-((8-cyano-1,2,3,5,6,7-hexahydro-s-indacen-4-yl)carbamoyl)-4-(2-hydroxypropan-2-yl)pyridine-2-sulfonimidamide], under setting [1], the IC50 was in the range of 200 to 1000 nM.
Still for that read-out and setting: in the case of `COc1ccc(Cn2nc(S(N)(=O)=NC(=O)Nc3c4c(cc5c3CCC5)CCC4)cc2C(C)(C)O)cc1` (stereo not shown) [Example 682, N′-((1,2,3,5,6,7-hexahydro-s-indacen-4-yl)carbamoyl)-5-(2-hydroxypropan-2-yl)-1-(4-methoxybenzyl)-1H-pyrazole-3-sulfonimidamide] it was 200 to 1000 nM.
Same read-out and setting: in the case of `C[C@@](O)(COCCOCc1ccccc1)c1ncc(S(N)(=O)=NC(=O)Nc2c3c(cc4c2CCC4)CCC3)s1` (stereo partly drawn) [Example 683, 2-((R)-1-(2-(benzyloxy)ethoxy)-2-hydroxypropan-2-yl)-N′-((1,2,3,5,6,7-hexahydro-s-indacen-4-yl)carbamoyl)thiazole-5-sulfonimidamide] it was 200 to 1000 nM; in that of `COCCOC[C@@](C)(O)c1ncc(S(N)(=O)=NC(=O)Nc2c3c(cc4c2CCC4)CCC3)s1` (stereo partly drawn) [Example 684, N′-((1,2,3,5,6,7-hexahydro-s-indacen-4-yl)carbamoyl)-2-((R)-2-hydroxy-1-(2-methoxyethoxy)propan-2-yl)thiazole-5-sulfonimidamide], 40 to 200 nM.
For `C=CCNCc1ccc([S@](N)(=O)=NC(=O)Nc2c3c(cc4c2CCC4)CCC3)cc1` [Example 699, (R)-4-((allylamino)methyl)-N′-((1,2,3,5,6,7-hexahydro-s-indacen-4-yl)carbamoyl)-benzenesulfonimidamide], under setting [1], the IC50 fell in the range of 1000 to 5000 nM.
For the molecule `CCNCc1ccc([S@](N)(=O)=NC(=O)Nc2c3c(cc4c2CCC4)CCC3)cc1` [Example 700, (R)-4-((ethylamino)methyl)-N′-((1,2,3,5,6,7-hexahydro-s-indacen-4-yl)carbamoyl)-benzenesulfonimidamide], the concentration for half-maximal inhibition (IC50) under setting [1] is 1000 to 5000 nM.
On to `COCCNCc1ccc([S@](N)(=O)=NC(=O)Nc2c3c(cc4c2CCC4)CCC3)cc1` [Example 701, (R)-N′-((1,2,3,5,6,7-hexahydro-s-indacen-4-yl)carbamoyl)-4-(((2-methoxyethyl)amino)-methyl)benzenesulfonimidamide], for which, under setting [1], the half-maximal inhibitory concentration (IC50) lay in the range of 1000 to 5000 nM.
The same measure, in the same setting: to `CCC(C)NCc1ccc([S@](N)(=O)=NC(=O)Nc2c3c(cc4c2CCC4)CCC3)cc1` (stereo partly drawn) [Example 702, (R)-4-((sec-butylamino)methyl)-N′-((1,2,3,5,6,7-hexahydro-s-indacen-4-yl)carbamoyl)-benzenesulfonimidamide] belongs 1000 to 5000 nM; to `N[S@@](=O)(=NC(=O)Nc1c2c(cc3c1CCC3)CCC2)c1ccc(CNC2CCOCC2)cc1` [Example 703, (R)-N′-((1,2,3,5,6,7-hexahydro-s-indacen-4-yl)carbamoyl)-4-(((tetrahydro-2H-pyran-4-yl)-amino)methyl)benzenesulfonimidamide], 1000 to 5000 nM.
As to `N[S@@](=O)(=NC(=O)Nc1c2c(cc3c1CCC3)CCC2)c1ccc(CNC2CCCCCC2)cc1` [Example 704, (R)-4-((cycloheptylamino)methyl)-N′-((1,2,3,5,6,7-hexahydro-s-indacen-4-yl)-carbamoyl)-benzenesulfonimidamide], the IC50 under setting [1] was in the range of 1000 to 5000 nM.
The same measure, in the same setting: in the case of `N[S@@](=O)(=NC(=O)Nc1c2c(cc3c1CCC3)CCC2)c1ccc(CNC2CCC2)cc1` [Example 705, (R)-4-((cyclobutylamino)methyl)-N′-((1,2,3,5,6,7-hexahydro-s-indacen-4-yl)carbamoyl)-benzenesulfonimidamide] it was 1000 to 5000 nM; in that of `CC(C)NCc1ccc([S@](N)(=O)=NC(=O)Nc2c3c(cc4c2CCC4)CCC3)cc1` [Example 706, (R)-N′-((1,2,3,5,6,7-hexahydro-s-indacen-4-yl)carbamoyl)-4-((isopropylamino)methyl)-benzenesulfonimidamide], 1000 to 5000 nM.
Regarding `CN1CCN(Cc2ccc([S@](N)(=O)=NC(=O)Nc3c4c(cc5c3CCC5)CCC4)cc2)CC1` [Example 707, (R)-N′-((1,2,3,5,6,7-hexahydro-s-indacen-4-yl)carbamoyl)-4-((4-methylpiperazin-1-yl)-methyl)benzenesulfonimidamide], under setting [1], the IC50 lay within 1000 to 5000 nM.
Same read-out and setting: in the case of `N[S@@](=O)(=NC(=O)Nc1c2c(cc3c1CCC3)CCC2)c1ccc(CNCC(F)F)cc1` [Example 708, (R)-4-(((2,2-difluoroethyl)amino)methyl)-N′-((1,2,3,5,6,7-hexahydro-s-indacen-4-yl)-carbamoyl)benzenesulfonimidamide] it was 1000 to 5000 nM.
For `CN(Cc1ccc([S@](N)(=O)=NC(=O)Nc2c3c(cc4c2CCC4)CCC3)cc1)C1CCC1` [Example 709, (R)-4-((cyclobutyl(methyl)amino)methyl)-N′-((1,2,3,5,6,7-hexahydro-s-indacen-4-yl)-carbamoyl)benzenesulfonimidamide], the IC50 under setting [1] was in the range of 200 to 1000 nM.
The same measure, in the same setting: in the case of `COc1ccc([C@@H](C)NS(=O)(=NC(=O)Nc2c3c(cc4c2CCC4)CCC3)c2cnc(C(C)(C)O)s2)cc1` (stereo partly drawn) [Example 712, N′-((1,2,3,5,6,7-hexahydro-s-indacen-4-yl)carbamoyl)-2-(2-hydroxypropan-2-yl)-N-((R)-1-(4-methoxyphenyl)ethyl)thiazole-5-sulfonimidamide] it was 5000 to 30000 nM; in that of `C[C@](O)(CO)c1ncc([S@](N)(=O)=NC(=O)Nc2c3c(cc4c2CCC4)CCC3)s1` [Example 713, (R)-2-((S)-1,2-dihydroxypropan-2-yl)-N-((1,2,3,5,6,7-hexahydro-s-indacen-4-yl)carbamoyl)thiazole-5-sulfonimidamide], 8 to 40 nM.

In general, IC50 refers to the concentration at which inhibition is half-maximal.

The values are drawn from patent publication US20230051589A1, “COMPOUNDS AND COMPOSITIONS FOR TREATING CONDITIONS ASSOCIATED WITH NLRP ACTIVITY” (Novartis AG, priority 2018, published 2023).
